The values that follow come from patent US20060115431A1, “Procedures of cellular labelling with paramagnetic complexes for mri applications” (Bracco Imaging S.p.A., priority 2002, published 2006).

One series relates to U937 cells. The series is described as follows: Internalization assay of sonicated Gd-1 particles with U937 cells endowed with macrophagic activity. The note with it: 0.2 mg Gd-1 in medium, ca. 4 hours incubation. The series is classed as cell-based. On the procedure:
The particles obtained by the sonication procedure described in example 5 has been tested in an internalization assay with the U937 cells endowed with macrophagic activity. The incubation medium contains 0.2 mg of Gd-1 (total). After ca. 4 hours of incubation the amount of Gd internalized reached a maximum value of 2×10^−8 moles/mg of protein. This means that ca 10% is taken up by the cells. Such amount is well sufficient to allow the visualisation of these cells. Once the enzymatic degradation process proceeds the signal intensity progressively increases to reach a steady state which lasts for a time long enough for the type of applications of this protocol.

For a further series, the system named is U937 monocytes. The series is described as follows: Phagocytic uptake of Gd-1 particles on U937 monocytes differentiated with TPA. The series is classed as cell-based. On the procedure: The phagocytic uptake of the Gd-1 particles was carried out on U937 monocytes previously treated for three days with TPA to induce cell differentiation. The size of the Gd-1 particles was determined by electron microscope observation and the measured diameter ranged from 0.5 to 10 μm. Most particles had diameter <10 μm, which is sufficiently small to allow the phagocytic process. The uptake was carried out at 37° C. and the cells were incubated with two different amounts of Gd-1 at subsequent times (1 to 12 hours). After incubation at 37° C. for several hours, the medium was removed and the cells were washed three times with 5 mL PBS. In these conditions, Gd-1 particles suspended in the medium are not solubilised; in fact, the relaxivity of the medium remains very close to that of pure water (0.45 s^−1). The amount of Gd(III) detected in the cells is directly proportional to incubation time and in 12 hours the saturation of the kinetic curve is not reached (FIG. 3). As expected, the amount of phagocyted Gd(III) is proportional to the amount of complex added to the culture medium at time zero. It is interesting to compare this behaviour with the water proton relaxation rate in the cytosolic extract. This was obtained by freezing three times the cells at −80° C. after completion of phagocytosis. […]

A further series relates to neutrophiles. Description: Labelling of neutrophiles with sonicated Gd-1 particles. The series is classed as cell-based. The note with it: ca. […]10^6 neutrophiles, 0.4 mg particles, 37° C. The method, then:
One of the applications for labelled cells deals with the identification of infection loci in patients affected by fever of unknown origin. This imply the labelling of Neutrophiles obtained from the standard procedures from a specimen of blood drawn from the patient. After labelling the neutrophiles have to be re-injected in the patient who is subjected to MRI examination.
The labelling of neutrophiles (ca. 2.5×10^6) has been carried out by incubating them (5 ml) in a medium containing 0.4 mg of particles of Gd-1 prepared according to example 5.
After 2.5 h of incubation at 37° C., the cells were harvested, whashed several times with PBS, then analyzed. The content of Gd per mg protein is 8.8×10^−8 moles, i.e. an amount that after the intracellular degradation of the particle, is well sufficient to allow the visualization of the labelled cells by MRI techniques.

The subject of series [1] is esterase from swine liver [EC3.1.1.1]. Description: In vitro evaluation of esterase activity on Gd-1 particles (turbidity, water proton relaxation rate R1). The series is classed as biochemical. The method, then: (§1) The activity of two different enzymes (esterase from swine liver [EC3.1.1.1] and lipase from Chromobacterium viscosum [EC 3.1.1.34]) was evaluated on Gd-1 particles.
(§2) This behaviour was confirmed by measurements of the water protons relaxation rate (R1) on a NMR spectrometer (Stelar Spinmaster) operating at 0.5T and 298K.
(§3) In the presence of the esterase (2 mg) R1 rapidly rises and after 2-3 hours reaches the value expected for a soluble Gd(III) complex resulting from the hydrolysis of the ester bonds of the Gd-1 complex. The differences in the two observed curves, and therefore the different reaction kinetics, can be ascribed to the different amounts of active units per mg of the two enzymes added to the Gd complex suspension.

The test system of series [2] is U937 monocytes differentiated to macrophages. The series is described as follows: Intracellular esterase activity on Gd-1 in intact cells. The series is classed as cell-based. On the procedure:
An experiment for evaluating the enzymatic activity inside intact cells was set up, using Gd-1 particles as probes. For this purpose, different capsules containing about 2×10^6 cells (U937 monocytes differentiated to macrophages as described above) were incubated with ca. 5 mg of Gd-1 particles suspended in 5 mL medium (RPMI) for four hours at 37° C. After this period the cells were washed three times with PBS, covered with further 5 ml RPMI and re-incubated for different times at 37° C. In this way it was possible to isolate the contribution deriving from the esterase-catalysed hydrolysis of Gd-1 particles for the time interval that […] the internalisation step. The proton relaxation rate was measured at successive time intervals (0.5, 1, 2 hours). After 4 hours incubation in the presence of Gd-1 particles the cells internalise about 60 nmol complex, but only 50% of the internalised particles is hydrolysed in this time and contributes to the total relaxivity. In fact, the relaxivity of the cytosolic extract is 2.5 when the cells are resuspended in a medium devoid of Gd-1 and raises to 3.7 in the following two hours of enzymatic hydrolysis. It can be therefore assumed that 80% of Gd-1 internalised particles have been solubilised by cellular esterases (FIG. 5).

For series [3], the target named is lipase from Chromobacterium viscosum [EC 3.1.1.34] (Pseudarthrobacter phenanthrenivorans, UniProt P0DUB9). Description: In vitro evaluation of lipase activity on Gd-1 particles (turbidity, R1). The following applies: HEPES buffer 50 mM, pH=8, 310K. The series is classed as biochemical. On the procedure: as §1, §2, §3
Another series relates to macrophages esterase. The series is described as follows: Macrophage lysate esterase on Gd-1 (R1 increase). The series is classed as biochemical. The following applies: about 4×10^6 macrophages lysed by sonication, about 1 mg Gd-1. On the procedure:
Afterwards, the macrophages esterase was tested. For this purpose, about 4×10^6 macrophages were subjected to lysis by sonication and about 1 mg Gd-1 was added to the lysate. The enzyme present in the cellular lysate rapidly cleaves the hydrophobic ester groups, thus releasing the soluble Gd complex. The formation of soluble Gd complex is well followed by the increase of water proton relaxation rate (FIG. 2). After about two hours the enzymatic reaction reaches the steady state.

lipase from Chromobacterium viscosum [EC 3.1.1.34], sequence (P0DUB9 whole entry): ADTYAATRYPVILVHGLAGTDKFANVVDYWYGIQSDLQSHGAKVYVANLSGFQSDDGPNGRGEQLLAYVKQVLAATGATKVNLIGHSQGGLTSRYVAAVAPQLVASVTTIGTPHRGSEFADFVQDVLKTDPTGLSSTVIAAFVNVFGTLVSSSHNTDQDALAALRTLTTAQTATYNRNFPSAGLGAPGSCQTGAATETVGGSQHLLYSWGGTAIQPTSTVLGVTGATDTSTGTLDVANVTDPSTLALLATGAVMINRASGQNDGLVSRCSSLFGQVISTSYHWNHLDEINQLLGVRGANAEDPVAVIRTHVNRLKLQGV

As for `CCCCCCCCCCCCCCCCCC(=O)OCCOCCNC(=O)CN(CCN(CCN(CC(=O)O)CC(=O)NCCOCCOC(=O)CCCCCCCCCCCCCCCCC)CC(=O)O)CC(=O)O` [Gd-1], the “amount of Gd internalized (maximum value)” value in the series on U937 cells is given as 2×10^−8 moles/mg of protein. For the same compound, the “fraction taken up by the cells” value with U937 cells is approximately 10%. Besides, in the series with U937 monocytes (culture medium, 37° C., particles not solubilised), the “relaxivity of the medium with suspended particles” value is approximately 0.45 s⁻¹. Besides, the “content of Gd per mg protein” value in the series on neutrophiles came out at 8.8e-08 mol. Further, the “turbidity of the suspension in the presence of the enzyme” value in series [1] (HEPES buffer 50 mM, pH=8, 310K) is on record as “progressive decrease in turbidity”; in series [3], “progressive decrease in turbidity”. The “time for R1 to reach the value expected for a soluble Gd(III) complex” value in series [1] (esterase 2 mg) lay within 2 to 3 h. In addition, in series [1] (no enzyme, 0.5T, 298K, not different from pure water), the “water protons relaxation rate (R1) in the absence of enzyme” value amounted to 0.38 s⁻¹. The “amount of complex internalised by the cells” value in series [2] (about 2×10^6 cells, ca. 5 mg particles in 5 mL RPMI, 4 hours, 37° C.) is on record as “about 60 nmol”. For the same compound, the “fraction of the internalised particles hydrolysed” value in series [2] (after 4 hours incubation with particles) was 50%. The entries for the “relaxivity of the cytosolic extract” value in series [2] (after the following two hours of enzymatic hydrolysis) and in series [2] (when cells are resuspended in a medium devoid of Gd-1) were 3.7 and 2.5, respectively. Besides, the “fraction of internalised particles solubilised by cellular esterases” value in series [2] (after two further hours of hydrolysis) is recorded as 80%. Further, the “time for the enzymatic reaction to reach the steady state” value with macrophages esterase is reported as “about two”.

As for `CC(O)CN1CCN(CC(=O)[O-])CCN(CC(=O)[O-])CCN(CC(=O)[O-])CC1.[Gd+3]` (stereo not drawn) [Gd-HPDO3A, reference compound], in the series on U937 monocytes (soluble complex incubated in the same conditions as Gd-1 particles), the “presence of the complex in the cells (relaxation rate of water protons in the cytosolic extract)” value was “complete absence”.
